Reference: PubChem BioAssay AID1117286 (Broad Institute, 2014)
Inconclusive results are not listed. Calls of active or inactive are those of the source.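 The calls were made as follows: active = every test run gives a falling-signal AC50 no higher than twice the top tested dose; inconclusive = runs disagree, or a flat partial drop, or a poor fit; inactive = all runs inactive, including rising signal.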

Target: Endoplasmic reticulum aminopeptidase 2 (Homo sapiens) (UniProt Q6P179)
Assay: ERAP2 aminopeptidase inhibitors, dose response, selectivity assay for selective ERAP1 modulator project, biochemical, plate reader, dry powder samples (AID 1117286)
Settings: Recombinant ERAP2, Arg-AMC cleavage fluorescence, 1 h

Sequence of Endoplasmic reticulum aminopeptidase 2 (Homo sapiens) (Q6P179 whole entry, looked up): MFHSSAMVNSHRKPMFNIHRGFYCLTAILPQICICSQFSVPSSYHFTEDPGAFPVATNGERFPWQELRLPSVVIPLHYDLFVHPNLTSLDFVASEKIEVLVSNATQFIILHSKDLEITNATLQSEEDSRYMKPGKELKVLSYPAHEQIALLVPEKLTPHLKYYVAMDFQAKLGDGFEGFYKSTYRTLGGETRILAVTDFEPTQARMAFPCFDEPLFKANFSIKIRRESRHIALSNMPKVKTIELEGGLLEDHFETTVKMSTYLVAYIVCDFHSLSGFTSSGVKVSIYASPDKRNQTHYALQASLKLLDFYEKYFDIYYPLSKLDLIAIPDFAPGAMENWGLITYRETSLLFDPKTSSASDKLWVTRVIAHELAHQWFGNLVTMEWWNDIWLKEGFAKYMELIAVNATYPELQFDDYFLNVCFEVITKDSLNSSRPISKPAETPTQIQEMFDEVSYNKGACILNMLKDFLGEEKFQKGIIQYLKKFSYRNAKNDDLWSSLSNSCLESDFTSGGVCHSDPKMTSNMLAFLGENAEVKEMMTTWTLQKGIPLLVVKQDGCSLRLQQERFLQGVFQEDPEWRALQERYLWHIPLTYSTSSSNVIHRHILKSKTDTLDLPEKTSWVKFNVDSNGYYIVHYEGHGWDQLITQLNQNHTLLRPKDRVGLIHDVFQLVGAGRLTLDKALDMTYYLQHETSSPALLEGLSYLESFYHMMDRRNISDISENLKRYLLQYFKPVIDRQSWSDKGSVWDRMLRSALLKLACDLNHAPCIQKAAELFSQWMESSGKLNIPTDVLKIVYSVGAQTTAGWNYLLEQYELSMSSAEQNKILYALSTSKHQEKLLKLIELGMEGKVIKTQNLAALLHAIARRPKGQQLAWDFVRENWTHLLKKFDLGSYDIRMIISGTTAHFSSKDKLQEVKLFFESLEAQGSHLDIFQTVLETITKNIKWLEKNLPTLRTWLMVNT

AC50, inactive:
COc1ccc(C(=O)Nc2cc(C(F)(F)F)ccc2N2CCCCC2)cc1S(=O)(=O)O > 100 µM
CC(=O)N1CCN(C(=O)[C@@H]2CCN2C(=O)Nc2ccc(C)cc2)CC1 > 100 µM

Same assay, conditions: Recombinant ERAP2, Arg-AMC cleavage fluorescence, 1 h; at 26 µM (top of the series)

Activity change, negative = inhibition, inactive:
COc1ccc(C2=NN(c3ccc(C(=O)O)cc3)C(c3ccc(OC)c(OC)c3)C2)cc1 (configuration not stated)

Same assay, conditions: Recombinant ERAP2, Arg-AMC cleavage fluorescence, 1 h; at 50 µM (top of the series)

Activity change, negative = inhibition, inactive:
CC(=O)N1CCN(C(=O)C2(NC(=O)NCCc3ccccc3)CCCCC2)CC1
CC(=O)N1CCN(C(=O)C2(NC(=O)Nc3ccccc3F)CCCCC2)CC1
COc1ccc(C(=O)O)cc1S(=O)(=O)Nc1ccccc1N1CCCCC1
COc1ccc(C(=O)O)cc1S(=O)(=O)Nc1cc(C)ccc1N1CCCCC1
O=S(=O)(Nc1cc(C(F)(F)F)ccc1N1CCCCC1)c1ccc(-c2ccccc2)cc1
CC(=O)N1CCN(C(=O)C2(NC(=O)Nc3ccc(F)cc3)CCCCC2)CC1
O=S(=O)(Nc1cc(C(F)(F)F)ccc1N1CCCCC1)c1ccc(Cl)cc1
O=S(=O)(Nc1cc(C(F)(F)F)ccc1N1CCCCC1)c1ccccc1
CC(=O)N1CCN(C(=O)C2(NC(=O)Nc3ccccc3C(F)(F)F)CCCCC2)CC1
Cc1ccccc1S(=O)(=O)Nc1cc(C(F)(F)F)ccc1N1CCCCC1
COc1cccc(NC(=O)NC2(C(=O)N3CCN(C(C)=O)CC3)CCCCC2)c1
Cc1ccc(NC(=O)NC2(C(=O)N3CCOCC3)CCCCC2)cc1
CC(=O)N1CCN(C(=O)CNC(=O)Nc2ccc(C)cc2)CC1
COc1ccc(C(=O)O)cc1S(=O)(=O)Nc1cc(C(F)(F)F)ccc1N1CCOCC1
O=[N+]([O-])c1cccc(S(=O)(=O)Nc2cc(C(F)(F)F)ccc2N2CCCCC2)c1
CC(=O)N1CCN(C(=O)C2(NC(=O)Nc3ccc(C(F)(F)F)cc3)CCCC2)CC1
CC(=O)N1CCN(C(=O)C2(NC(=O)Nc3ccccc3)CCCC2)CC1
Cn1cnc(S(=O)(=O)Nc2cc(C(F)(F)F)ccc2N2CCCCC2)c1
CC(=O)N1CCN(C(=O)C2(NC(=O)Nc3ccc(C)cc3)CCCCC2)CC1
CC(=O)N1CCN(C(=O)C2(NC(=O)Nc3cccc(F)c3)CCCCC2)CC1
COc1ccc(S(=O)(=O)Nc2cc(C(F)(F)F)ccc2N2CCCCC2)cc1
CC(=O)N1CCN(C(=O)C2(NC(=O)Nc3ccc(C(C)C)cc3)CCCCC2)CC1
CC(=O)N1CCN(C(=O)C2(NC(=O)NC(C)(C)C)CCCCC2)CC1
COc1ccc(C(=O)Nc2ccccc2N2CCCCC2)cc1S(=O)(=O)O
Cc1ccc(NC(=O)NC2(C(=O)N3CCNCC3)CCCCC2)cc1
COc1ccc(NC(=O)NC2(C(=O)N3CCN(C(C)=O)CC3)CCCCC2)cc1
COc1ccc(C(=O)Nc2cc(C)ccc2N2CCCCC2)cc1S(=O)(=O)O
N#Cc1ccc(S(=O)(=O)Nc2cc(C(F)(F)F)ccc2N2CCCCC2)cc1
COc1ccc(C(=O)O)cc1S(=O)(=O)Nc1cc(F)ccc1N1CCCCC1
CC(=O)N1CCN(C(=O)C2(NC(=O)Nc3ccc(C(C)C)cc3)CCCC2)CC1
CC(=O)N1CCN(C(=O)C2(NC(=O)Nc3ccc(Cl)cc3)CCCCC2)CC1
O=S(=O)(Nc1cc(C(F)(F)F)ccc1N1CCCCC1)c1ccc(Br)cc1
CC(=O)N1CCN(C(=O)C2(NC(=O)Nc3cccc(C(F)(F)F)c3)CCCCC2)CC1
COc1ccc(C(=O)Nc2cccc(C(F)(F)F)c2)cc1S(=O)(=O)O
O=S(=O)(Nc1cc(C(F)(F)F)ccc1N1CCCCC1)c1ccc(F)cc1
CC(=O)N1CCN(C(=O)C2(NC(=O)Nc3ccccc3)CCCCC2)CC1
NC(=NCCc1c[nH]c2ccccc12)NS(=O)(=O)c1cc(F)ccc1F
COc1ccc(C(=O)O)cc1S(=O)(=O)Nc1cc(C(F)(F)F)ccc1N1CCCCC1
O=C(Nc1cc(C(F)(F)F)ccc1N1CCCCC1)c1ccc(S(=O)(=O)O)cc1
O=[N+]([O-])c1ccc(S(=O)(=O)Nc2cc(C(F)(F)F)ccc2N2CCCCC2)c([N+](=O)[O-])c1
CC(=O)N1CCN(C(=O)C2CCCN2C(=O)Nc2ccc(C)cc2)CC1 (configuration not stated)
O=S(=O)(Nc1cc(C(F)(F)F)ccc1N1CCCCC1)c1cc(Cl)cc(Cl)c1
Cc1ccc(NC(=O)NC2(C(=O)N3CCN(c4ccccc4)CC3)CCCCC2)cc1
CC(=O)N1CCN(C(=O)C2(NC(=O)Nc3ccc(F)cc3)CCCC2)CC1
COc1ccc(C(=O)Nc2cc(F)ccc2N2CCCCC2)cc1S(=O)(=O)O
COc1ccc(C(=O)Nc2cc(C(F)(F)F)ccc2N2CCCC2)cc1S(=O)(=O)O
CC(=O)N1CCN(C(=O)C(C)(C)NC(=O)Nc2ccc(C)cc2)CC1
O=S(=O)(Nc1cc(C(F)(F)F)ccc1N1CCCCC1)c1ccc(C(F)(F)F)cc1
COc1ccc(C(=O)O)cc1S(=O)(=O)Nc1cc(C(F)(F)F)ccc1N(C)C
